Laboratory results as given in patent publication EP0416609A2, “Benzo[b]thiophene-containing lipoxygenase-inhibiting compounds” (ABBOTT LABORATORIES, priority 1989, dated 1991).

Molecular target: T1, 5-lipoxygenase (Rattus norvegicus, UniProt P12527)
T1 construct: containing the 20,000xg supernatant from 6x10⁴ homogenized RBL-1 cells; endogenous in cells; host or cells: RBL-1 cells (20,000xg supernatant of homogenate)
T1 sequence (P12527 1-673): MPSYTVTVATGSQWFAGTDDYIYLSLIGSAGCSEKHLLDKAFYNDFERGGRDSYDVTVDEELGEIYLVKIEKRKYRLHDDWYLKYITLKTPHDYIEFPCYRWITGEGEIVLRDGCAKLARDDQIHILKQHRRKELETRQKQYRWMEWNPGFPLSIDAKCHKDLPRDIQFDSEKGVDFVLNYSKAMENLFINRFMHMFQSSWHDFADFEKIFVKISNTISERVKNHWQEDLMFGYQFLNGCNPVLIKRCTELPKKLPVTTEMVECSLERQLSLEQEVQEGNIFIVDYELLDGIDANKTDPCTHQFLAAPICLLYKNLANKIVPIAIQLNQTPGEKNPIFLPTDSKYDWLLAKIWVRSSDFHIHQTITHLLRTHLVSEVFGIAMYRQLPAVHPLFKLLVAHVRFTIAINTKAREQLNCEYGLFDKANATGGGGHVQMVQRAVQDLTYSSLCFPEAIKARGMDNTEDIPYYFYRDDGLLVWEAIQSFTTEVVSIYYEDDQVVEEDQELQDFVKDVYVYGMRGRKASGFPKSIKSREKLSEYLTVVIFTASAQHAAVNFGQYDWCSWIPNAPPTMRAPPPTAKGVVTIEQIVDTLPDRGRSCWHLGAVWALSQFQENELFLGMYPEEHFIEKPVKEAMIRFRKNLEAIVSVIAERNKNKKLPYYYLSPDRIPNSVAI
Assay: Lipoxygenase IC50 determination (20,000xg supernatant from homogenized RBL-1 cells, radiolabelled arachidonic acid)
Format: biochemical
Conditions: 20,000xg supernatant from 6x10⁴ homogenized RBL-1 cells, 2% DMSO vehicle, triplicate incubations; read-out: IC₅₀
Description: Lipoxygenase IC₅₀ Determination
Reactions were initiated by addition of radiolabelled arachidonic acid and terminated by acidification and ether extraction. Reaction products were separated from nonconverted substrate by thin layer chromatography and measured by liquid scintillation spectroscopy. All treatments were evaluated in triplicate incubations. […] ICso values and 95% confidence limits were computed by linear regression analysis of percentage inhibition versus log inhibitor concentration plots.

Compound | IC50 [nM]
CCOC(=O)ON(C(N)=O)C(C)c1cc2ccccc2s1 (stereo not shown) [Example 4, N-ethoxycarbonyloxvyN-[1-(benzo[b]thien-2-yl)ethyl]urea] | 1500
CC(=O)ON(C(N)=O)C(C)c1cc2ccccc2s1 (stereo not shown) [Example 3, N-acetoxy-N-[1-(benzol[b]thien-2-yl)ethyl]urea] | 2100
CC(=O)N(O)C(C)c1cc2ccccc2s1 (stereo not shown) [Example 1, N-hydroxy-N-(1-benzol[b]thien-2-ylethyl)acetamide] | 1100

Continued, values first:

IC50 [nM] | Compound
1200 | COC(=O)ON(C(N)=O)C(C)c1cc2ccccc2s1 (stereo not shown) [Example 5, N-methoxycarbonyloxy-N-[1-(benzol[b]thien-2-yl)ethyl]urea]
1000 | CC(c1cc2ccccc2s1)N(O)C(=O)NC(N)=O (stereo not shown) [Example 11]
600 | CC(c1cc2ccccc2s1)N(OC(=O)CCC(=O)O)C(N)=O (stereo not shown) [Example 9, N-succinyloxy-N-[1-(benzo[b]thien-2-yl)ethyl]urea]
1500 | CC(=O)NC(=O)N(O)C(C)c1cc2ccccc2s1 (stereo not shown) [Example 10, N′-acetyl-N-hydroxy-N-[1-(benzo[b]thien-2-yl)ethyl]urea;]
